# Assay results published in paper PMC6072100, “Exploring the links between peptoid antibacterial activity and toxicity” (MedChemComm, 2017).
# Square brackets hold non-standard residues; d marks the D form. Peptide text beside a SMILES is read from it. Gly(Nα-4-Cl-benzyl) = O=C(O)CNCc1ccc(Cl)cc1; N(4-F-Bzl)Gly = O=C(O)CNCc1ccc(F)cc1; Gly(N-(CH2)6NH2) = NCCCCCCNCC(=O)O; Nspe = C[C@H](NCC(=O)O)c1ccccc1; NhArg = N=C(N)NCCCCNCC(=O)O; Nphe = O=C(O)CNCc1ccccc1; Nlys = NCCCCNCC(=O)O
# Key:
# [1] = Skin cell toxicity assay with HaCaT (alamarBlue); format: cell-based, human; conditions: human, HaCaT cells (keratinocytes)
# Outline: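 HaCaT cells seeded at 2x10^4 per well 24 hours before 1-hour exposure to a 2–100 µM triplicate dilution series in DMEM high glucose with 10% FBS at 37 °C, 5% CO2. Viability assessed with alamarBlue; ED50 defined as dose killing 50% of cells, derived from dose-response data.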
# [2] = Cytotoxicity assay with HepG2 (alamarBlue); format: cell-based, human; conditions: human, HepG2 cells
# Description: The activity of our peptoid library was assessed against both bacterial and mammalian cells to gain a broader understanding of the factors that lead to effective and selective antimicrobial peptoids. We screened for broad-spectrum antibacterial activity against Gram-negative (Escherichia coli and Pseudomonas aeruginosa) and Gram-positive (Staphylococcus aureus and S. epidermidis) bacteria. The toxicity of the library was also assessed against two mammalian cell lines; HaCaT spontaneously transformed aneuploid keratinocytes were employed to model toxicity against human skin cells and HepG2, a cell line derived from a human liver carcinoma, were used as a study on polarised human hepatocytes. Detailed methods for these assays can be found in the ESI. ^‡ […]
# Please note – ED50, the median effective dose, was defined as the dose that kills 50% of cells.
# Cytotoxicity analyses were performed in 96-well plates (Costar, Fisher Scientific) using alamarBlue® (Invitrogen) for cell viability detection using a modified protocol as described previously. HepG2 or HaCaT cells were subcultured at 37 °C, 5% CO2 in DMEM high glucose supplemented with heat-inactivated foetal bovine sera (FBS, 10%; Biosera Ltd) and penicillin/streptomycin (P/S, 1%). Cells were counted using a Neubauer Improved Haemocytometer. HepG2 cells were seeded 1 day prior to treatment in 96 well plates at a concentration of 2 × 10^5 cells per mL in 100 μL of medium (2 × 10^4 cells per well). Then cells were pre-incubated with the compounds in triplicate in a dilution series in triplicate from 2–100 μM (5 mM stock solutions in DMSO diluted from 100 μM to 3 μM; untreated cells with DMSO as a negative control) in 50 μl of the media for 1 hour. Afterwards, 40 μL were removed from each well before the addition of 90 μL of the media, followed by incubation for 24 hours at 37 °C, 5% CO2. Then, 10 μL of alamarBlue® (Invitrogen) was added to each well before a 2 hour incubation prior to assessing cell viability using a fluorescent plate reader (Biotek; Ex 560 nm/Em 600 nm). All data were measured in triplicate on a minimum of two occasions to ensure a robust data set was collected. The ED50 values were calculated from the dose response results achieved from the serial dilutions.
# Cytotoxicity assay with HepG2
# Cytotoxicity analyses were performed in 96-well plates (Costar, Fisher Scientific) using alamarBlue® (Invitrogen) for cell viability detection using a modified protocol as previously described. The HepG2 cells were grown at 37 °C, 5% CO2 in DMEM high glucose supplemented with heat-inactivated foetal bovine sera (FBS, 10%; Biosera Ltd) and penicillin/streptomycin (P/S, 1%). Cells were counted using a Neubauer Improved Haemocytometer. HepG2 cells were seeded 1 day prior to treatment in 96 well plates at a concentration of 2x10^5 cells/mL in 100 µL of medium (2x10^4 cells/well). Then cells were pre-incubated with the compounds in triplicate (5 mM stock solutions in DMSO diluted from 100 µM to 3 µM; untreated cells with DMSO as a negative control) in 50 µl of the media for 1 hour.
# Afterwards, 40 µL were removed from each well before the addition of 90 µL of the media, followed by incubation for 24 hours at 37 °C, 5% CO2. Then, 10 µL of alamarBlue® (Invitrogen) was added to each well before a 2 hour incubation prior to assessing cell viability using a fluorescent plate reader (Biotek; Ex 560 nm / Em 600 nm). All data was measured in triplicate on a minimum of two occasions to ensure a robust data set was collected. The ED50 values were calculated from the dose response results achieved from the serial dilutions. […]
# 5% CO2 in DMEM high glucose supplemented with heat-inactivated foetal bovine sera (FBS, 10%; Biosera Ltd) and penicillin/streptomycin (P/S, 1%). Cells were counted using a Neubauer […]
# Empty wells were filled with 100 µL PBS. After 24 hours, cells were incubated with the compounds in a dilution series in triplicate from 2 – 100 µM (5 mM stock solutions in DMSO […]
# [3] = dose that kills 50% of cells, 2–100 μM, 1 h with compound then 24 h, alamarBlue, read-out: ED50 HaCaT
# [4] = dose that kills 50% of cells, 2–100 μM, 1 h with compound then 24 h, alamarBlue, read-out: ED50 HepG2
compound,measurement,setting,value
"NCCCCCCNCC(=O)N(CC(=O)N(CC(=O)N(CCCCCCN)CC(=O)N(CC(=O)N(CC(=O)N(CCCCCCN)CC(=O)N(CC(=O)N(CC(N)=O)Cc1ccccc1)Cc1ccccc1)Cc1ccccc1)Cc1ccccc1)Cc1ccccc1)Cc1ccccc1 [Peptoid 2, (NahNpheNphe)3] (H-[Gly(N-(CH2)6NH2)][Nphe][Nphe][Gly(N-(CH2)6NH2)][Nphe][Nphe][Gly(N-(CH2)6NH2)][Nphe][Nphe]-NH2)",CC50 at 24 h,[1]; ED50 HaCaT,100 µM
same,CC50 at 24 h,[2]; ED50 HepG2,100 µM
"NCCCCNCC(=O)N(CC(=O)N(CC(=O)N(CCCCN)CC(=O)N(CC(=O)N(CC(=O)N(CCCCN)CC(=O)N(CC(=O)N(CC(=O)N(CCCCN)CC(=O)N(CC(=O)N(CC(N)=O)Cc1ccc(Cl)cc1)Cc1ccc(Cl)cc1)Cc1ccc(Cl)cc1)Cc1ccc(Cl)cc1)Cc1ccc(Cl)cc1)Cc1ccc(Cl)cc1)Cc1ccc(Cl)cc1)Cc1ccc(Cl)cc1 [Peptoid 20, (NLysNpcbNpcb)4] (H-[Nlys][Gly(Nα-4-Cl-benzyl)][Gly(Nα-4-Cl-benzyl)][Nlys][Gly(Nα-4-Cl-benzyl)][Gly(Nα-4-Cl-benzyl)][Nlys][Gly(Nα-4-Cl-benzyl)][Gly(Nα-4-Cl-benzyl)][Nlys][Gly(Nα-4-Cl-benzyl)][Gly(Nα-4-Cl-benzyl)]-NH2)",CC50 at 24 h,[1]; ED50 HaCaT,18 µM
same,CC50 at 24 h,[2]; ED50 HepG2,22 µM
"NCCCCNCC(=O)N(CC(=O)N(CC(=O)N(CCCCN)CC(=O)N(CC(=O)N(CC(=O)N(CCCCN)CC(=O)N(CC(=O)N(CC(=O)N(CCCCN)CC(=O)N(CC(=O)N(CC(N)=O)Cc1ccccc1)Cc1ccccc1)Cc1ccccc1)Cc1ccccc1)Cc1ccccc1)Cc1ccccc1)Cc1ccccc1)Cc1ccccc1 [Peptoid 4, (NLysNpheNphe)4] (H-[Nlys][Nphe][Nphe][Nlys][Nphe][Nphe][Nlys][Nphe][Nphe][Nlys][Nphe][Nphe]-NH2)",CC50 at 24 h,[1]; ED50 HaCaT,36 µM
same,CC50 at 24 h,[2]; ED50 HepG2,100 µM
"C[C@@H](c1ccccc1)N(CC(N)=O)C(=O)CN(C(=O)CN(CCCCNC(=N)N)C(=O)CN(C(=O)CN(C(=O)CN(CCCCNC(=N)N)C(=O)CN(C(=O)CN(C(=O)CN(CCCCNC(=N)N)C(=O)CN(C(=O)CN(C(=O)CNCCCCNC(=N)N)[C@@H](C)c1ccccc1)[C@@H](C)c1ccccc1)[C@@H](C)c1ccccc1)[C@@H](C)c1ccccc1)[C@@H](C)c1ccccc1)[C@@H](C)c1ccccc1)[C@@H](C)c1ccccc1 [Peptoid 34, (NhArgNspeNspe)4] (H-[NhArg][Nspe][Nspe][NhArg][Nspe][Nspe][NhArg][Nspe][Nspe][NhArg][Nspe][Nspe]-NH2)",CC50 at 24 h,[1]; ED50 HaCaT,11 µM
same,CC50 at 24 h,[2]; ED50 HepG2,12 µM
"C[C@@H](c1ccccc1)N(CC(N)=O)C(=O)CN(C(=O)CN(CCCCN)C(=O)CN(Cc1ccc(F)cc1)C(=O)CN(Cc1ccc(F)cc1)C(=O)CN(CCCCN)C(=O)CN(C(=O)CN(C(=O)CN(CCCCN)C(=O)CN(Cc1ccc(F)cc1)C(=O)CN(Cc1ccc(F)cc1)C(=O)CNCCCCN)[C@@H](C)c1ccccc1)[C@@H](C)c1ccccc1)[C@@H](C)c1ccccc1 [Peptoid 28, [(NLysNpfbNpfb)(NLysNspeNspe)]2]",CC50 at 24 h,[1]; ED50 HaCaT,100 µM
same,CC50 at 24 h,[2]; ED50 HepG2,55 µM
"CCCCCNCC(=O)N(CC(=O)N(CC(=O)N(CCCCC)CC(=O)N(CC(=O)N(CC(=O)N(CCCCN)CC(=O)N(CC(=O)N(CC(=O)N(CCCCN)CC(=O)N(CC(=O)N(CC(N)=O)[C@@H](C)c1ccccc1)[C@@H](C)c1ccccc1)[C@@H](C)c1ccccc1)[C@@H](C)c1ccccc1)[C@@H](C)c1ccccc1)[C@@H](C)c1ccccc1)[C@@H](C)c1ccccc1)[C@@H](C)c1ccccc1 [Peptoid 31, (NamyNspeNspe)2(NLysNspeNspe)2]",CC50 at 24 h,[1]; ED50 HaCaT,20 µM
same,CC50 at 24 h,[2]; ED50 HepG2,18 µM
"C[C@@H](c1ccccc1)N(CC(N)=O)C(=O)CN(C(=O)CN(CCCCN)C(=O)CN(Cc1ccc(F)cc1)C(=O)CN(Cc1ccc(F)cc1)C(=O)CN(CCCCN)C(=O)CN(C(=O)CN(C(=O)CNCCCCN)[C@@H](C)c1ccccc1)[C@@H](C)c1ccccc1)[C@@H](C)c1ccccc1 [Peptoid 29, (NLysNspeNspe)(NLysNpfbNpfb)(NLysNspeNspe)]",CC50 at 24 h,[1]; [3],65 µM
same,CC50 at 24 h,[2]; [4],43 µM
"NCCCCNCC(=O)N(CC(=O)N(CC(=O)N(CCCCN)CC(=O)N(CC(=O)N(CC(=O)N(CCCCN)CC(=O)N(CC(=O)N(CC(=O)N(CCCCN)CC(=O)N(CC(=O)N(CC(N)=O)Cc1ccc(F)cc1)Cc1ccc(F)cc1)Cc1ccc(F)cc1)Cc1ccc(F)cc1)Cc1ccc(F)cc1)Cc1ccc(F)cc1)Cc1ccc(F)cc1)Cc1ccc(F)cc1 [Peptoid 22, (NLysNpfbNpfb)4] (H-[Nlys][N(4-F-Bzl)Gly][N(4-F-Bzl)Gly][Nlys][N(4-F-Bzl)Gly][N(4-F-Bzl)Gly][Nlys][N(4-F-Bzl)Gly][N(4-F-Bzl)Gly][Nlys][N(4-F-Bzl)Gly][N(4-F-Bzl)Gly]-NH2)",CC50 at 24 h,[1]; ED50 HaCaT,46 µM
same,CC50 at 24 h,[2]; ED50 HepG2,30 µM
"NCCCCNCC(=O)N(CC(=O)N(CC(=O)N(CCCCN)CC(=O)N(CC(=O)N(CC(N)=O)Cc1ccccc1)Cc1ccccc1)Cc1ccccc1)Cc1ccccc1 [Peptoid 6, (NLysNpheNphe)2] (H-[Nlys][Nphe][Nphe][Nlys][Nphe][Nphe]-NH2)",CC50 at 24 h,[1]; ED50 HaCaT,100 µM
same,CC50 at 24 h,[2]; ED50 HepG2,100 µM
"C[C@@H](c1ccccc1)N(CC(N)=O)C(=O)CN(C(=O)CN(CCN)C(=O)CN(C(=O)CN(C(=O)CN(CCN)C(=O)CN(C(=O)CN(C(=O)CNCCN)[C@@H](C)c1ccccc1)[C@@H](C)c1ccccc1)[C@@H](C)c1ccccc1)[C@@H](C)c1ccccc1)[C@@H](C)c1ccccc1 [Peptoid 17, (NaeNspeNspe)3]",CC50 at 24 h,[1]; [3],100 µM
same,CC50 at 24 h,[2]; [4],100 µM
"NCCCCNCC(=O)N(CC(=O)N(CC(=O)N(CCCCN)CC(=O)N(CC(=O)N(CC(=O)N(CCCCN)CC(=O)N(CC(=O)N(CC(N)=O)Cc1ccc(Cl)cc1)Cc1ccc(Cl)cc1)Cc1ccc(Cl)cc1)Cc1ccc(Cl)cc1)Cc1ccc(Cl)cc1)Cc1ccc(Cl)cc1 [Peptoid 21, (NLysNpcbNpcb)3] (H-[Nlys][Gly(Nα-4-Cl-benzyl)][Gly(Nα-4-Cl-benzyl)][Nlys][Gly(Nα-4-Cl-benzyl)][Gly(Nα-4-Cl-benzyl)][Nlys][Gly(Nα-4-Cl-benzyl)][Gly(Nα-4-Cl-benzyl)]-NH2)",CC50 at 24 h,[1]; ED50 HaCaT,22 µM
same,CC50 at 24 h,[2]; ED50 HepG2,23 µM
"NCCCCNCC(=O)N(CC(=O)N(CC(=O)N(CCCCN)CC(=O)N(CC(=O)N(CC(=O)N(CCCCN)CC(=O)N(CC(=O)N(CC(N)=O)Cc1ccc(F)cc1)Cc1ccc(F)cc1)Cc1ccc(F)cc1)Cc1ccc(F)cc1)Cc1ccc(F)cc1)Cc1ccc(F)cc1 [Peptoid 23, (NLysNpfbNpfb)3] (H-[Nlys][N(4-F-Bzl)Gly][N(4-F-Bzl)Gly][Nlys][N(4-F-Bzl)Gly][N(4-F-Bzl)Gly][Nlys][N(4-F-Bzl)Gly][N(4-F-Bzl)Gly]-NH2)",CC50 at 24 h,[1]; ED50 HaCaT,100 µM
same,CC50 at 24 h,[2]; ED50 HepG2,45 µM
"CCCCCN(CC(=O)N(CC(=O)N(CC(=O)N(CCCCN)CC(=O)N(CC(=O)N(CC(N)=O)[C@@H](C)c1ccccc1)[C@@H](C)c1ccccc1)[C@@H](C)c1ccccc1)[C@@H](C)c1ccccc1)C(=O)CN(C(=O)CN(C(=O)CN(CCCCN)C(=O)CN(C(=O)CN(C(=O)CNCCCCN)[C@@H](C)c1ccccc1)[C@@H](C)c1ccccc1)[C@@H](C)c1ccccc1)[C@@H](C)c1ccccc1 [Peptoid 32, (NLysNspeNspe)2(NamyNspeNspe)(NLysNspeNspe)]",CC50 at 24 h,[1]; ED50 HaCaT,20 µM
same,CC50 at 24 h,[2]; ED50 HepG2,22 µM
"NCCCCCCNCC(=O)N(CC(=O)N(CC(=O)N(CCCCCCN)CC(=O)N(CC(=O)N(CC(N)=O)Cc1ccccc1)Cc1ccccc1)Cc1ccccc1)Cc1ccccc1 [Peptoid 3, (NahNpheNphe)2] (H-[Gly(N-(CH2)6NH2)][Nphe][Nphe][Gly(N-(CH2)6NH2)][Nphe][Nphe]-NH2)",CC50 at 24 h,[1]; ED50 HaCaT,100 µM
same,CC50 at 24 h,[2]; ED50 HepG2,100 µM
